Data on 22 molecules can be found in US20260250290A1 (BRISTOL-MYERS SQUIBB COMPANY, priority 2023, published 2026).

The experiment concerns the target T1, full length SGK1 (Homo sapiens, UniProt O00141).
T1 construct: 125 μM full length SGK1 (Life Technologies Part #PR7358A); purchased Life Technologies PR7358A
T1 sequence (O00141 1-431): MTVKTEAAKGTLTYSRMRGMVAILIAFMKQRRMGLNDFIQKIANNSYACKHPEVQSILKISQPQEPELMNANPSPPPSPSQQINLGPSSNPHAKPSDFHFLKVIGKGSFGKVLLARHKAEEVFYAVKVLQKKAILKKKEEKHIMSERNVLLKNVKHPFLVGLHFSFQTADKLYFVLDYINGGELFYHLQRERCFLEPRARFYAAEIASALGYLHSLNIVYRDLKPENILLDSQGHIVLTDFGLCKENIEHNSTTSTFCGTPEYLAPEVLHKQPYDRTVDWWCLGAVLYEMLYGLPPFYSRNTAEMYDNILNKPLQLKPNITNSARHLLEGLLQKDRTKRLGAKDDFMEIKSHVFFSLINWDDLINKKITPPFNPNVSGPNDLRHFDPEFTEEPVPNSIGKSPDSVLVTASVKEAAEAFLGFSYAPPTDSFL
Kind of experiment: SGK1 inhibition Assay A (Caliper LabChip electrophoretic separation of fluorescent peptide substrate and phosphorylated product). Type of experiment: biochemical. The following applies: Assay A; 20 μM ATP, 40 min incubation; read-out: SGK1 IC50.

pIC50: −log10 of the molar value.

Regarding `CC(=O)N1CC=C(c2cc(N3CCC[C@@H](NC(=O)c4cc(N5CCOCC5)c(C)s4)C3)c3c(N)ncnn23)C1` [Example 271, (R)—N-(1-(7-(1-acetyl-2,5-dihydro-1H-pyrrol-3-yl)-4-aminopyrrolo[2,1-f][1,2,4]triazin-5-yl)piperidin-3-yl)-5-methyl-4-morpholinothiophene-2-carboxamide], the pIC50 (in general, −log10 of the IC50, conventionally taken in molar units) was 7.66. The figure for `CC(=O)N1CC=C(c2cc(N3CCC[C@@H](NC(=O)c4cc(N5CCOCC5)cs4)C3)c3c(N)ncnn23)C1` [Example 272, (R)—N-(1-(7-(1-acetyl-2,5-dihydro-1H-pyrrol-3-yl)-4-aminopyrrolo[2,1-f][1,2,4]triazin-5-yl)piperidin-3-yl)-4-morpholinothiophene-2-carboxamide] is 7.55. To `CN1CCN(CCOc2cc(Cl)sc2C(=O)N[C@@H]2CCCN(c3cc(C4=CCN(S(C)(=O)=O)C4)n4ncnc(N)c34)C2)CC1` [Example 273, (R)—N-(1-(4-amino-7-(1-(methylsulfonyl)-2,5-dihydro-1H-pyrrol-3-yl)pyrrolo[2,1-f][1,2,4]triazin-5-yl)piperidin-3-yl)-5-chloro-3-(2-(4-methylpiperazin-1-yl)ethoxy)thiophene-2-carboxamide] belongs 8.30. The figure for `CS(=O)(=O)c1ccc(-c2cc(N3CCC[C@@H](NS(=O)(=O)c4ccccc4)C3)c3c(N)ncnn23)cc1` [Example 274, (R)—N-(1-(4-amino-7-(4-(methylsulfonyl)phenyl)pyrrolo[2,1-f][1,2,4]triazin-5-yl)piperidin-3-yl)benzenesulfonamide] is 6.04; for `CN(C)CCOc1cc(Cl)sc1C(=O)N[C@@H]1CCCN(c2cc(-c3cnn(C4CCOC4)c3)n3ncnc(N)c23)C1` (stereo partly drawn) [Example 275, N-((3R)-1-(4-amino-7-(1-(tetrahydrofuran-3-yl)-1H-pyrazol-4-yl)pyrrolo[2,1-f][1,2,4]triazin-5-yl)piperidin-3-yl)-5-chloro-3-(2-(dimethylamino)ethoxy)thiophene-2-carboxamide] it is 6.04; for `CN(C)CCOc1cc(Cl)sc1C(=O)N[C@@H]1CCCN(c2cc(-c3ccc(C=O)cc3)n3ncnc(N)c23)C1` [Example 276, (R)—N-(1-(4-amino-7-(4-formylphenyl)pyrrolo[2,1-f][1,2,4]triazin-5-yl)piperidin-3-yl)-5-chloro-3-(2-(dimethylamino)ethoxy)thiophene-2-carboxamide] it is 9.00. With `Cc1cc(-c2cc(N3CCC[C@@H](NC(=O)c4sc(Cl)cc4OCCN(C)C)C3)c3c(N)ncnn23)cc(C(F)F)n1` [Example 277, (R)-N-(1-(4-amino-7-(2-(difluoromethyl)-6-methylpyridin-4-yl)pyrrolo[2,1-f][1,2,4]triazin-5-yl)piperidin-3-yl)-5-chloro-3-(2-(dimethylamino)ethoxy) thiophene-2-carboxamide], the pIC50 was 8.00.

`CN(C)CCOc1cc(Cl)sc1C(=O)N[C@@H]1CCCN(c2cc(-c3ccc(C#N)nc3)n3ncnc(N)c23)C1` [Example 278, (R)-N-(1-(4-amino-7-(6-cyanopyridin-3-yl)pyrrolo[2,1-f][1,2,4]triazin-5-yl)piperidin-3-yl)-5-chloro-3-(2-(dimethylamino)ethoxy) thiophene-2-carboxamide]: the pIC50 is 9.00. For `CN(C)CCOc1cc(Cl)sc1C(=O)N[C@@H]1CCCN(c2cc(-c3ccc(C#N)c(F)c3)n3ncnc(N)c23)C1` [Example 279, (R)-N-(1-(4-amino-7-(4-cyano-3-fluorophenyl)pyrrolo[2,1-f][1,2,4]triazin-5-yl)piperidin-3-yl)-5-chloro-3-(2-(dimethylamino)ethoxy) thiophene-2-carboxamide], the pIC50 is 8.52. `CN(C)CCOc1cc(Cl)sc1C(=O)N[C@@H]1CCCN(c2cc(-c3ccnc(C#N)c3)n3ncnc(N)c23)C1` [Example 280, (R)-N-(1-(4-amino-7-(2-cyanopyridin-4-yl)pyrrolo[2,1-f][1,2,4]triazin-5-yl)piperidin-3-yl)-5-chloro-3-(2-(dimethylamino)ethoxy) thiophene-2-carboxamide]: the pIC50 was 8.70.

As for `CN(C)CCOc1cc(Cl)sc1C(=O)N[C@@H]1CCCN(c2cc(-c3ccc(=O)n(CC(F)F)c3)n3ncnc(N)c23)C1` [Example 281, (R)-N-(1-(4-amino-7-(1-(2,2-difluoroethyl)-6-oxo-1,6-dihydropyridin-3-yl)pyrrolo[2,1-f][1,2,4]triazin-5-yl)piperidin-3-yl)-5-chloro-3-(2-(dimethylamino)ethoxy) thiophene-2-carboxamide], the pIC50 is 8.40.

As for `CN(C)CCOc1cc(Cl)sc1C(=O)N[C@@H]1CCCN(c2cc(-c3cccc(C=O)c3)n3ncnc(N)c23)C1` [Example 283, (R)-N-(1-(4-amino-7-(3-formylphenyl)pyrrolo[2,1-f][1,2,4]triazin-5-yl)piperidin-3-yl)-5-chloro-3-(2-(dimethylamino)ethoxy) thiophene-2-carboxamide], the pIC50 is 8.22. The figure for `COC(=O)N1CC=C(c2cc(N3CCC[C@@H](NC(=O)c4sc(Cl)cc4OCCN4CCC(F)(F)CC4)C3)c3c(N)ncnn23)C1` [Example 284, methyl (R)-3-(4-amino-5-(3-(5-chloro-3-(2-(4,4-difluoropiperidin-1-yl)ethoxy)thiophene-2-carboxamido)piperidin-1-yl)pyrrolo[2,1-f][1,2,4]triazin-7-yl)-2,5-dihydro-1H-pyrrole-1-carboxylate] is 7.74; for `COC(=O)N1CC=C(c2cc(N3CCC[C@@H](NC(=O)c4sc(Cl)cc4OCCN4CCC(F)(F)C4)C3)c3c(N)ncnn23)C1` [Example 285, Methyl (R)-3-(4-amino-5-(3-(5-chloro-3-(2-(3,3-difluoropyrrolidin-1-yl)ethoxy)thiophene-2-carboxamido)piperidin-1-yl)pyrrolo[2,1-f][1,2,4]triazin-7-yl)-2,5-dihydro-1H-pyrrole-1-carboxylate] it is 7.77. The figure for `COC(=O)N1CC=C(c2cc(N3CCC[C@@H](NC(=O)c4sc(Cl)cc4OCCN4CCOC(C)C4)C3)c3c(N)ncnn23)C1` (stereo partly drawn) [Example 286, Methyl 3-(4-amino-5-((3R)-3-(5-chloro-3-(2-(2-methylmorpholino)ethoxy)thiophene-2-carboxamido)piperidin-1-yl)pyrrolo[2,1-f] [1,2,4]triazin-7-yl)-2,5-dihydro-1H-pyrrole-1-carboxylate] is 7.64; for `COC(=O)N1CC=C(c2cc(N3CCC[C@@H](NC(=O)c4sc(Cl)cc4OCCN4C[C@@H](C)O[C@@H](C)C4)C3)c3c(N)ncnn23)C1` [Example 287, Methyl 3-(4-amino-5-((R)-3-(5-chloro-3-(2-((2S,6R)-2,6-dimethylmorpholino)ethoxy)thiophene-2-carboxamido)piperidin-1-yl)pyrrolo[2,1-f] [1,2,4]triazin-7-yl)-2,5-dihydro-1H-pyrrole-1-carboxylate] it is 7.66; for `COC(=O)N1CC=C(c2cc(N3CCC[C@@H](NC(=O)c4sc(Cl)cc4OCCN4CC(F)(F)C4)C3)c3c(N)ncnn23)C1` [Example 288, Methyl (R)-3-(4-amino-5-(3-(5-chloro-3-(2-(3,3-difluoroazetidin-1-yl)ethoxy)thiophene-2-carboxamido)piperidin-1-yl)pyrrolo[2,1-f][1,2,4]triazin-7-yl)-2,5-dihydro-1H-pyrrole-1-carboxylate] it is 7.80. As for `COC(=O)N1CC=C(c2cc(N3CCC[C@@H](NC(=O)c4sc(Cl)cc4OCCN4CC5(COC5)C4)C3)c3c(N)ncnn23)C1` [Example 289, Methyl (R)-3-(5-(3-(3-(2-(2-oxa-6-azaspiro[3.3]heptan-6-yl)ethoxy)-5-chlorothiophene-2-carboxamido)piperidin-1-yl)-4-aminopyrrolo[2,1-f][1,2,4]triazin-7-yl)-2,5-dihydro-1H-pyrrole-1-carboxylate], the pIC50 was 7.85.

On to `COC(=O)N1CC=C(c2cc(N3CCC[C@@H](NC(=O)c4sc(Cl)cc4OCCN4CC(OC)C4)C3)c3c(N)ncnn23)C1` [Example 290], for which the pIC50 was 7.68. To `COC(=O)N1CC=C(c2cc(N3CCC[C@@H](NC(=O)c4sc(Cl)cc4OCCN4CCS(=O)(=O)CC4)C3)c3c(N)ncnn23)C1` [Example 291, Methyl (R)-3-(4-amino-5-(3-(5-chloro-3-(2-(1,1-dioxidothiomorpholino)ethoxy)thiophene-2-carboxamido)piperidin-1-yl)pyrrolo[2,1-f] [1,2,4]triazin-7-yl)-2,5-dihydro-1H-pyrrole-1-carboxylate] belongs 8.10; to `COC(=O)N1CC=C(c2cc(N3CCC[C@@H](NC(=O)c4sc(Cl)cc4OCCN4CCCC4)C3)c3c(N)ncnn23)C1` [Example 292, Methyl (R)-3-(4-amino-5-(3-(5-chloro-3-(2-(pyrrolidin-1-yl)ethoxy)thiophene-2-carboxamido)piperidin-1-yl)pyrrolo[2,1-f] [1,2,4]triazin-7-yl)-2,5-dihydro-1H-pyrrole-1-carboxylate], 8.00; to `Nc1ncnn2c(-c3ccnc(C(F)F)c3)cc(N3CCC[C@@H](NC(=O)c4sc(Cl)cc4OCCN4CCC(F)(F)CC4)C3)c12` [Example 293, (R)-N-(1-(4-amino-7-(2-(difluoromethyl)pyridin-4-yl)pyrrolo[2,1-f][1,2,4]triazin-5-yl)piperidin-3-yl)-5-chloro-3-(2-(4,4-difluoropiperidin-1-yl)ethoxy)thiophene-2-carboxamide], 8.05.
